Test results taken from patent US10463670B2, “Use of non-peptide NK1 antagonists in a predetermined dose for the treatment of cancer” (SERVICIO ANDALUZ DE SALUD, priority 2013, dated 2019).

What was measured:
Human lung cancer A-427 = assay: MTS cell proliferation, nanomolar antagonist, A-427; assay type: cell-based; conditions: Aprepitant 1, 5 and 7 nM, vs cells grown in the absence of antagonist, time dependant
Procedure: Cell cultures of various commercial tumour cell lines stated in table 13 were used. [table] […] The number of cells was quantified using a Coulter counter. […] The culture plates were grown in the presence of increasing concentrations of non-peptide NK1 receptor antagonists. To obtain the staining in the proliferation assays, 20 μl of MTS were added to each one of the wells of the cell culture plates 90 minutes before reading the samples in a multiscan spectrophotometer (TECAN Spectra classic, Barcelona, Spain) at 492 nm (assay wavelength) and 690 nm (reference wavelength). The different doses were tested in duplicate and each experiment was performed in triplicate. The antagonist Aprepitant was used at the following concentrations: 1 nanomolar -nM-, 5 nanomolar -nM- and 7 nanomolar -nM-. […] As proliferation control, the cells were grown in the absence of said antagonist. This is expressed in FIGS. 1 to 10.

[1] = tested on: human neuroblastoma; reference KELLY; assay: Neuroblastoma KELLY tumours implanted s.c. in nude mice, Aprepitant alone; assay type: in vivo
Procedure: (§1) Immunocompromised female mice, 5-6 weeks of age were used, nu/nu Balb/c nude mice, provided by Harlan Iberica Barcelona (Spain). They were kept at 24° C. and in sterile conditions with food and water “ad libitum”. They were injected with 2×10^7 tumour cells, corresponding to cancer (human lung cancer, reference HCC-44 supplied by DSMZ) in 200 μl of PBS subcutaneous route. The tumour size was measured and the mice were evaluated for their state of health and weight daily. The mice were randomized in nine groups when the tumours reached a volume of 75 mm^3. One of the groups was treated with 200 μl of placebo (control group) and the eight remaining groups with doses of 10 (group 1), 20 (group 2), 30 (group 3), 40 (group 4), 50 (group 5), 60 (group 6), 70 (group 7) and 80 (group 8) mg per kilogram of weight and day of the NK1 receptor antagonist Aprepitant. 3 animals were treated per group, during 28 days. All the mice were sacrificed at the end of the experiment.
(§2) Immunocompromised female mice, 5-6 weeks of age were used, in the same conditions as explained in example 1. They were injected with 2×10^7 tumour cells, corresponding to an embryonic tumour (human neuroblastoma; reference KELLY; supplied by DSMZ) in 200 μl of PBS by subcutaneous route. The tumour size was measured and the mice were evaluated for their state of health and weight daily. The mice were randomized in nine groups when the tumours reached a volume of 75 mm^3. One of the groups was treated with 200 μl of placebo (control group) and the eight remaining groups with doses of 10 (group 1), 20 (group 2), 30 (group 3), 40 (group 4), 50 (group 5), 60 (group 6), 70 (group 7) and 80 (group 8) mg per kilogram of weight and day of the NK1 receptor antagonist Aprepitant. 3 animals were treated per group, during 28 days. All the mice were sacrificed at the end of the experiment.

[2] = tested on: human melanoma; reference MEL-HO; assay: Melanoma MEL-HO tumours implanted s.c. in nude mice, Aprepitant alone; assay type: in vivo
Procedure: as §1
as §2, with “a melanoma cell line” for “an embryonic”, “melanoma;” for “neuroblastoma;”, “MEL-HO;” for “KELLY;”

[3] = Aprepitant 10 mg/kg/day, 7 days
[4] = Aprepitant 10 mg/kg/day, 14 days
[5] = Aprepitant 10 mg/kg/day, 21 days
[6] = Aprepitant 10 mg/kg/day, 28 days
[7] = Aprepitant 20 mg/kg/day, 7 days
[8] = Aprepitant 20 mg/kg/day, 14 days
[9] = Aprepitant 20 mg/kg/day, 21 days
[10] = Aprepitant 20 mg/kg/day, 28 days
[11] = Aprepitant 30 mg/kg/day, 7 days
[12] = Aprepitant 30 mg/kg/day, 14 days
[13] = Aprepitant 30 mg/kg/day, 21 days
[14] = Aprepitant 30 mg/kg/day, 28 days
[15] = Aprepitant 40 mg/kg/day, 7 days
[16] = Aprepitant 40 mg/kg/day, 14 days
[17] = Aprepitant 40 mg/kg/day, 21 days
[18] = Aprepitant 40 mg/kg/day, 28 days
[19] = Aprepitant 50 mg/kg/day, 7 days
[20] = Aprepitant 50 mg/kg/day, 14 days
[21] = Aprepitant 50 mg/kg/day, 21 days
[22] = Aprepitant 50 mg/kg/day, 28 days
[23] = Aprepitant 60 mg/kg/day, 7 days
[24] = Aprepitant 60 mg/kg/day, 14 days
[25] = Aprepitant 60 mg/kg/day, 21 days
[26] = Aprepitant 60 mg/kg/day, 28 days
[27] = Aprepitant 70 mg/kg/day, 7 days
[28] = Aprepitant 70 mg/kg/day, 14 days
[29] = Aprepitant 70 mg/kg/day, 21 days
[30] = Aprepitant 70 mg/kg/day, 28 days
[31] = Aprepitant 80 mg/kg/day, 7 days
[32] = Aprepitant 80 mg/kg/day, 14 days
[33] = Aprepitant 80 mg/kg/day, 21 days
[34] = Aprepitant 80 mg/kg/day, 28 days

C[C@@H](O[C@H]1OCCN(Cc2n[nH]c(=O)[nH]2)[C@H]1c1ccc(F)cc1)c1cc(C(F)(F)F)cc(C(F)(F)F)c1 [Aprepitant]
Proliferation of tumour cells (MTS) (Human lung cancer A-427): increase was observed of proliferation | Tumour size (mean volume of the tumour) [1, 3]: 180 ± 4 cubic millimeters | Tumour size (mean volume of the tumour) [1, 4]: 165 ± 6 cubic millimeters | Tumour size (mean volume of the tumour) [1, 5]: 140 ± 5 cubic millimeters | Tumour size (mean volume of the tumour) [1, 6]: 120 ± 2 cubic millimeters | Tumour size (mean volume of the tumour) [1, 7]: 175 ± 7 cubic millimeters | Tumour size (mean volume of the tumour) [1, 8]: 155 ± 7 cubic millimeters | Tumour size (mean volume of the tumour) [1, 9]: 130 ± 4 cubic millimeters | Tumour size (mean volume of the tumour) [1, 10]: 105 ± 4 cubic millimeters | Tumour size (mean volume of the tumour) [1, 11]: 160 ± 3 cubic millimeters | Tumour size (mean volume of the tumour) [1, 12]: 145 ± 3 cubic millimeters | Tumour size (mean volume of the tumour) [1, 13]: 115 ± 3 cubic millimeters | Tumour size (mean volume of the tumour) [1, 14]: 90 ± 6 cubic millimeters | Tumour size (mean volume of the tumour) [1, 15]: 155 ± 6 cubic millimeters | Tumour size (mean volume of the tumour) [1, 16]: 130 ± 6 cubic millimeters | Tumour size (mean volume of the tumour) [1, 17]: 105 ± 7 cubic millimeters | Tumour size (mean volume of the tumour) [1, 18]: 75 ± 8 cubic millimeters | Tumour size (mean volume of the tumour) [1, 19]: 140 ± 4 cubic millimeters | Tumour size (mean volume of the tumour) [1, 20]: 110 ± 5 cubic millimeters | Tumour size (mean volume of the tumour) [1, 21]: 95 ± 7 cubic millimeters | Tumour size (mean volume of the tumour) [1, 22]: 60 ± 5 cubic millimeters | Tumour size (mean volume of the tumour) [1, 23]: 130 ± 5 cubic millimeters | Tumour size (mean volume of the tumour) [1, 24]: 115 ± 7 cubic millimeters | Tumour size (mean volume of the tumour) [1, 25]: 85 ± 3 cubic millimeters | Tumour size (mean volume of the tumour) [1, 26]: 55 ± 9 cubic millimeters | Tumour size (mean volume of the tumour) [1, 27]: 120 ± 6 cubic millimeters | Tumour size (mean volume of the tumour) [1, 28]: 95 ± 8 cubic millimeters | Tumour size (mean volume of the tumour) [1, 29]: 65 ± 6 cubic millimeters | Tumour size (mean volume of the tumour) [1, 30]: 40 ± 5 cubic millimeters | Tumour size (mean volume of the tumour) [1, 31]: 105 ± 7 cubic millimeters | Tumour size (mean volume of the tumour) [1, 32]: 85 ± 6 cubic millimeters | Tumour size (mean volume of the tumour) [1, 33]: 45 ± 5 cubic millimeters | Tumour size (mean volume of the tumour) [1, 34]: 25 ± 6 cubic millimeters | Tumour size (mean volume of the tumour) [2, 3]: 235 ± 3 cubic millimeters | Tumour size (mean volume of the tumour) [2, 4]: 215 ± 4 cubic millimeters | Tumour size (mean volume of the tumour) [2, 5]: 190 ± 4 cubic millimeters | Tumour size (mean volume of the tumour) [2, 6]: 170 ± 6 cubic millimeters | Tumour size (mean volume of the tumour) [2, 7]: 210 ± 6 cubic millimeters | Tumour size (mean volume of the tumour) [2, 8]: 200 ± 5 cubic millimeters | Tumour size (mean volume of the tumour) [2, 9]: 175 ± 5 cubic millimeters | Tumour size (mean volume of the tumour) [2, 10]: 150 ± 7 cubic millimeters | Tumour size (mean volume of the tumour) [2, 11]: 195 ± 7 cubic millimeters | Tumour size (mean volume of the tumour) [2, 12]: 185 ± 6 cubic millimeters | Tumour size (mean volume of the tumour) [2, 13]: 160 ± 6 cubic millimeters | Tumour size (mean volume of the tumour) [2, 14]: 140 ± 4 cubic millimeters | Tumour size (mean volume of the tumour) [2, 15]: 175 ± 8 cubic millimeters | Tumour size (mean volume of the tumour) [2, 16]: 160 ± 8 cubic millimeters | Tumour size (mean volume of the tumour) [2, 17]: 140 ± 4 cubic millimeters | Tumour size (mean volume of the tumour) [2, 18]: 110 ± 6 cubic millimeters | Tumour size (mean volume of the tumour) [2, 19]: 160 ± 5 cubic millimeters | Tumour size (mean volume of the tumour) [2, 20]: 150 ± 4 cubic millimeters | Tumour size (mean volume of the tumour) [2, 21]: 125 ± 5 cubic millimeters | Tumour size (mean volume of the tumour) [2, 22]: 100 ± 7 cubic millimeters | Tumour size (mean volume of the tumour) [2, 23]: 145 ± 6 cubic millimeters | Tumour size (mean volume of the tumour) [2, 24]: 135 ± 5 cubic millimeters | Tumour size (mean volume of the tumour) [2, 25]: 115 ± 6 cubic millimeters | Tumour size (mean volume of the tumour) [2, 26]: 85 ± 4 cubic millimeters | Tumour size (mean volume of the tumour) [2, 27]: 125 ± 4 cubic millimeters | Tumour size (mean volume of the tumour) [2, 28]: 105 ± 6 cubic millimeters | Tumour size (mean volume of the tumour) [2, 29]: 90 ± 4 cubic millimeters | Tumour size (mean volume of the tumour) [2, 30]: 80 ± 7 cubic millimeters | Tumour size (mean volume of the tumour) [2, 31]: 100 ± 6 cubic millimeters | Tumour size (mean volume of the tumour) [2, 32]: 95 ± 7 cubic millimeters | Tumour size (mean volume of the tumour) [2, 33]: 65 ± 7 cubic millimeters | Tumour size (mean volume of the tumour) [2, 34]: 65 ± 9 cubic millimeters
